The source made the active and inactive calls. The calls are words filed in the database; no cut-off is given here.
Legend:
MHCC97H [1] = experiment: Induction of cell cycle arrest in human MHCC97H cells assessed as decrease in accumulation of cells at G1 phase at 5 to 50 nM measured after 48 hrs by propidium iodide staining based flow cytometry; assay type: functional; conditions: dose 5-50 nM
[2] = Antiproliferative activity against vincristine resistant human HCT-8/VCR cells assessed as reduction in cell viability incubated for 48 hrs by MTT assay; assay type: functional, cell-based
[3] = Antiproliferative activity against paclitaxel resistant human A2780/PTX cells assessed as reduction in cell viability incubated for 48 hrs by MTT assay; assay type: functional, cell-based
MHCC97H [4] = experiment: Antitumor activity against human MHCC97H cells xenografted in BALB/c mouse assessed as tumor volume at 30 mg/kg, ip administered every other day for 30 days; assay type: functional; conditions: time 30 day
Tubulin [5] = experiment: Inhibition of colchicine binding to tubulin (unknown origin) by competitive binding assay; assay type: protein-complex assay, Homo sapiens
MHCC97H [6] = experiment: Induction of apoptosis in human MHCC97H cells assessed as downregulation of Bcl-xl expression at 5 to 50 nM measured after 24 to 48 hrs by Western blot analysis; assay type: functional, cell-based; conditions: dose 5-50 nM, time 24-48 hrs
MHCC97H [7] = experiment: Antitumor activity against human MHCC97H cells xenografted in BALB/c mouse assessed as tumor growth inhibition at 30 mg/kg, ip administered every other day for 30 days; assay type: functional; conditions: 720 h, time 30 day, read-out: TGI
Tubulin (Homo sapiens) [8] = biological target: T1, Tubulin (Homo sapiens) (UniProt P68371+Q9H4B7+P0DPH7+P68366+Q13509+Q71U36+P04350+Q3ZCM7+P07437+P68363+Q9BQE3+Q6PEY2+Q13885+Q9BVA1+Q9BUF5); experiment: Inhibition of colchicine binding to tubulin (unknown origin) at 10 uM by competitive binding assay relative to control; assay type: protein-complex assay
MHCC97H [9] = experiment: Induction of apoptosis in human MHCC97H cells assessed as decrease in MMP level incubated for 24 hrs by JC-1 staining based flow cytometry; assay type: functional, cell-based; conditions: dose 5-50 nM, DDE = dose-dependent effect
MHCC97H [10] = experiment: Induction of apoptosis in human MHCC97H cells assessed as downregulation of Bcl-2 expression at 5 to 50 nM measured after 24 to 48 hrs by Western blot analysis; assay type: functional, cell-based; conditions: dose 5-50 nM, time 24-48 hrs
Tubulin (Homo sapiens) [11] = biological target: T1, Tubulin (Homo sapiens); experiment: Induction of microtubule disruption in human MHCC97H cells assessed as occurence of cell shrinkage at 10 nM incubated for 8 hrs followed by compound washout and measured after 24 hrs by immunofluorescence based confocal microscopic analysis
Tubulin (Homo sapiens) [12] = biological target: T1, Tubulin (Homo sapiens); experiment: Disruption of microtubule network in human MHCC97H cells assessed as punctate morphology at 5 to 50 nM incubated for 24 hrs by Hoechst 33342 staining based confocal microscopy; assay type: cell-based; conditions: dose 5-50 nM
[13] = Selectivity ratio, ratio of IC50 for cytotoxicity against human MCF-10A cells to IC50 for antiproliferative activity against human MHCC97H cells; assay type: toxicity, cell-based; conditions: MCF-10A cells versus MHCC97H cells, read-out: Ratio IC50
HeLa = experiment: Antiproliferative activity against human HeLa cells assessed as reduction in cell viability incubated for 48 hrs by MTT assay; assay type: functional, cell-based
Tubulin (Homo sapiens) [14] = biological target: T1, Tubulin (Homo sapiens); experiment: Inhibition of colchicine binding to tubulin (unknown origin) at 0.625 uM by competitive binding assay relative to control; assay type: protein-complex assay
[15] = Resistance index, ratio of IC50 for antiproliferative activity against vincristine resistant human HCT-8/VCR cells to IC50 for antiproliferative activity against human HCT-8 cells; assay type: functional
Tubulin [16] = experiment: Inhibition of tubulin polymerization (unknown origin) assessed as decrease in fluorescence intensity incubated for 90 mins by DAPI staining based microplate reader analysis; assay type: protein-complex assay, Homo sapiens
[17] = Cytotoxicity against human HUVEC cells assessed as reduction in cell viability incubated for 48 hrs by MTT assay; assay type: toxicity, cell-based
Homo sapiens [18] = species: Homo sapiens; experiment: Irreversible inhibition of TrxR (unknown origin) using DTNB as substrate at 10 uM incubated for 2 hrs in presence of NADPH followed by substrate addition ultrafiltration based microplate reader analysis relative to control
Tubulin (Homo sapiens) [19] = biological target: T1, Tubulin (Homo sapiens); experiment: Disruption of microtubule network in human MHCC97H cells assessed as dotted morphology at 5 to 50 nM incubated for 24 hrs by Hoechst 33342 staining based confocal microscopy; assay type: cell-based; conditions: dose 5-50 nM
MHCC97H [20] = experiment: Induction of cell cycle arrest in human MHCC97H cells assessed as increase in accumulation of cells at G2/M phase at 5 to 50 nM measured after 48 hrs by propidium iodide staining based flow cytometry; assay type: functional; conditions: dose 5-50 nM
MCF7 = experiment: Antiproliferative activity against human MCF7 cells assessed as reduction in cell viability incubated for 48 hrs by MTT assay; assay type: functional, cell-based; conditions: MCF7, 48 h
MHCC97H [21] = experiment: Induction of apoptosis in human MHCC97H cells assessed as nucleus shrinkage at 5 to 50 nM incubated for 24 hrs by Hoechst 33342 staining based fluorescence microscopy; assay type: functional, cell-based; conditions: dose 5-50 nM
MHCC97H [22] = experiment: Induction of apoptosis in human MHCC97H cells assessed as chromatin condensation at 5 to 50 nM incubated for 24 hrs by Hoechst 33342 staining based fluorescence microscopy; assay type: functional, cell-based; conditions: dose 5-50 nM
MHCC97H [23] = experiment: Induction of apoptosis in human MHCC97H cells assessed as increase in total apoptotic cells at 5 to 50 nM by Annexin V-FITC/PI staining based flow cytometry method; assay type: functional, cell-based; conditions: dose 5-50 nM, time 24-48 hrs, TDE = time-dependent effect
Tubulin (Homo sapiens) [24] = biological target: T1, Tubulin (Homo sapiens); experiment: Inhibition of colchicine binding to tubulin (unknown origin) at 0.156 uM by competitive binding assay relative to control; assay type: protein-complex assay
Tubulin (Homo sapiens) [25] = biological target: T1, Tubulin (Homo sapiens); experiment: Inhibition of colchicine binding to tubulin (unknown origin) at 0.312 uM by competitive binding assay relative to control; assay type: protein-complex assay
Tubulin (Homo sapiens) [26] = biological target: T1, Tubulin (Homo sapiens); experiment: Disruption of microtubule network in human MHCC97H cells assessed as shrunken morphology at 5 to 50 nM incubated for 24 hrs by Hoechst 33342 staining based confocal microscopy; assay type: cell-based; conditions: dose 5-50 nM
Homo sapiens [27] = species: Homo sapiens; experiment: Inhibition of TrxR (unknown origin) assessed as alkylation of TrxR by measuring weak band intensity using BIAM as substrate at 10 to 40 uM preincubated for 2 hrs in presence of NADPH followed by substrate addition and measured after 30 mins by Western blot analysis; conditions: dose 10-40 µM, time 2.5 hrs
Tubulin (Homo sapiens) [28] = biological target: T1, Tubulin (Homo sapiens); experiment: Inhibition of colchicine binding to tubulin (unknown origin) at 2.50 uM by competitive binding assay relative to control; assay type: protein-complex assay; conditions: dose 2.5 µM
HCT-8 = experiment: Antiproliferative activity against human HCT-8 cells assessed as reduction in cell viability incubated for 48 hrs by MTT assay; assay type: functional, cell-based; conditions: HCT-8, 48 h
Tubulin (Homo sapiens) [29] = biological target: T1, Tubulin (Homo sapiens); experiment: Binding affinity to tubulin (unknown origin) assessed as reduction in peak area in the filtrate at 30 uM incubated for 1 hr by HPLC analysis; assay type: protein-complex assay
[30] = Cytotoxicity against human L02 cells assessed as reduction in cell viability incubated for 48 hrs by MTT assay; assay type: toxicity, cell-based
MHCC97H [31] = experiment: Induction of apoptosis in human MHCC97H cells assessed as upregulation of Bad expression measured after 24 to 48 hrs by Western blot analysis; assay type: functional, cell-based; conditions: dose 5-50 nM, time 24-48 hrs, DDE = dose-dependent effect

For `COc1ccc2c(/C=C(\C)C(=O)c3cc(OC)c(OC)c([Se]C)c3)c[nH]c2c1`, the Activity (MHCC97H [1]) was “Active”, the IC50 [2] was 45 nM and the IC50 [3] was 20 nM. For the same molecule, the Activity (MHCC97H [4]) was 419.7 mm3, the IC50 (Tubulin [5]) was 1300 nM and the Activity (MHCC97H [6]) was “Active”. The inhibition in vivo at 30 mg/kg (MHCC97H [7]) was 75.4%, the inhibition (Tubulin (Homo sapiens) [8]) was 94.4% and the Activity (MHCC97H [9]) was “Dde”. The Activity (MHCC97H [10]) was “Active”, the Activity (Tubulin (Homo sapiens) [11]) was “Active” and the Activity (Tubulin (Homo sapiens) [12]) was “Active”. The selectivity ratio [13] was 121, the IC50 (HeLa) was 21 nM and the inhibition (Tubulin (Homo sapiens) [14]) was 45%. The “Ratio IC50” value [15] was 1.56, the IC50 (Tubulin [16]) was 810 nM and the IC50 at 48 h [17] was 56 nM. For the same molecule, the inhibition (Homo sapiens [18]) was 91.4%, the Activity (Tubulin (Homo sapiens) [19]) was “Active” and the Activity (MHCC97H [20]) was “Active”. For the same molecule, the IC50 (MCF7) was 35 nM, the Activity (MHCC97H [21]) was “Active” and the Activity (MHCC97H [22]) was “Active”. The Activity (MHCC97H [23]) was “Tde”, the inhibition (Tubulin (Homo sapiens) [24]) was 24.9% and the inhibition (Tubulin (Homo sapiens) [25]) was 30.7%. For the same molecule, the Activity (Tubulin (Homo sapiens) [26]) was “Active”, the inhibition (Homo sapiens [27]) was “Active” and the inhibition (Tubulin (Homo sapiens) [28]) was 46.7%. For the same molecule, the IC50 (HCT-8) was 29 nM, the Activity (Tubulin (Homo sapiens) [29]) was “Active” and the IC50 at 48 h [30] was 398 nM. The Activity (MHCC97H [31]) was “Dde”.

Reference: ChEMBL document CHEMBL5143510, “Structure modification and biological evaluation of indole-chalcone derivatives as anti-tumor agents through dual targeting tubulin and TrxR” (Eur J Med Chem, 2022)
